Laboratory results published in patent EP1120414A1, “DISUBSTITUTED MALEIMIDE COMPOUNDS AND MEDICINAL UTILIZATION THEREOF” (Japan Tobacco Inc., priority 1998, dated 2000).
Where two headings read alike, the source gives them in different places.

Legend:
PKC α = target: T1, PKC α (Homo sapiens, UniProt P17252); assay: PKC enzyme assay (BIOTRAK Protein kinase C enzyme assay system, 32P-ATP phosphorylation of peptide […]); format: biochemical
T1 construct: purchased CALBIOCHEM
In short: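 Recombinant human PKC (400 ng/ml solution) phosphorylated the supplied peptide with [γ-32P]ATP in calcium, phosphatidylserine/PMA, DTT and Mg-ATP buffer, 15 min at 37°C. Compounds were tested at 1 nM-10 µM final. Phosphocellulose-bound radioactivity relative to DMSO gave inhibition, from which IC50 was calculated.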

PKC β II = target: T2, PKC β II (Homo sapiens, UniProt P05771); assay: as above; format: biochemical; conditions: for Ratio α/β: IC50 PKC α / IC50 PKC β II
T2 construct: purchased CALBIOCHEM
T2 sequence (P05771 other isoform, or with tags, fused parts or gaps): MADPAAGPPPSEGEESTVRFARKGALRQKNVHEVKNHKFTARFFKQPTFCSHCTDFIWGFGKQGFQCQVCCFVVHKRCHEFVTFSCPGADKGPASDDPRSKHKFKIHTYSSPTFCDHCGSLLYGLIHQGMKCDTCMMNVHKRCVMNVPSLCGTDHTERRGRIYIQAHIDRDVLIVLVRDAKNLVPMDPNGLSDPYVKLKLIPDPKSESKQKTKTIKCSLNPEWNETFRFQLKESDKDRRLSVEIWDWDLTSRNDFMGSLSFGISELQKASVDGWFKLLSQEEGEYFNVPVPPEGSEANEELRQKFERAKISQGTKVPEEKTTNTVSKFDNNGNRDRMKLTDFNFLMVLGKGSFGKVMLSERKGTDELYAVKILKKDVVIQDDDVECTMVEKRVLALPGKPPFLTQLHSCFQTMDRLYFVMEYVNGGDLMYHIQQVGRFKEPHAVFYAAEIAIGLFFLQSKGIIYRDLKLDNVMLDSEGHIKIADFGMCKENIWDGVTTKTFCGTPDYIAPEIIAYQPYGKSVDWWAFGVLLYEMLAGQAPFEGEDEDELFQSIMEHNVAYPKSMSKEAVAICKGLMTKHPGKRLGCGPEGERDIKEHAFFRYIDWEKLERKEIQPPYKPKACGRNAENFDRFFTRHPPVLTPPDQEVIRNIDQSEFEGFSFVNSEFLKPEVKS

[1] = Protein Kinase C, Human Recombinant, test substance 1 nM-10 µM, 37°C, 15 minutes, read-out: Inhibition of PKC activity IC50 PKC α
[2] = Protein Kinase C, Human Recombinant, test substance 1 nM-10 µM, 37°C, 15 minutes, read-out: Inhibition of PKC activity IC50 PKC β II
[3] = read-out: Inhibition of PKC activity IC50 PKC α, Protein Kinase C, Human Recombinant, test substance 1 nM-10 µM, 37°C, 15 minutes
[4] = read-out: Inhibition of PKC activity IC50 PKC β II, Protein Kinase C, Human Recombinant, test substance 1 nM-10 µM, 37°C, 15 minutes

SMILES | IC50 (PKC α; [1]) [nM] | Ratio α/β (PKC β II) | IC50 (PKC β II; [2]) [nM] | IC50 (PKC β II; [4]) [nM] | IC50 (PKC α) [nM] | IC50 (PKC β II) [nM] | IC50 (PKC α; [3]) [nM]
CN(C)C1CCN(CCCn2cc(C3=C(Nc4ccccc4)C(=O)NC3=O)c3ccccc32)CC1 [Example 2-34, 3-[1-{3-(4-dimethylaminopiperidino)propyl}-1H-indol-3-yl]-4-(phenylamino)-1H-pyrrole-2,5-dione] | 851 | 57 | 15 | – | – | – | –
CN(C)CCN(C)CCn1cc(C2=C(Nc3ccccc3)C(=O)NC2=O)c2ccccc21 [Example 2-16, 3-[1-{2-[N-(2-dimethylaminoethyl)-N-methylamino]ethyl}-1H-indol-3-yl]-4-(phenylamino)-1H-pyrrole-2,5-dione] | 6290 | 79 | 80 | – | – | – | –
CCN(C)C[C@H]1Cc2c(C3=C(Nc4ccccc4)C(=O)NC3=O)c3ccccc3n2C1 [Example 4-61] | – | 96 | 5 | – | – | – | 481
O=C1NC(=O)C(c2c3n(c4ccccc24)CC(CN2CCSCC2)C3)=C1Nc1ccccc1 (centres unmarked) [Example 4-28] | – | 134 | – | 25 | – | – | 3360
COC[C@H]1Cc2c(C3=C(Nc4ccccc4)C(=O)NC3=O)c3ccccc3n2C1 [Example 4-56] | – | 131 | – | – | 5220 | 40 | –
COc1ccc(NC2=C(c3cn(CCCn4ccnc4)c4ccccc34)C(=O)NC2=O)cc1 [Example 2-65, 3-[1-(3-imidazol-1-ylpropyl)-1H-indol-3-yl]-4-[(4-metholyphenyl)amino]-1H-pyrrole-2,5-dione] | 473 | 47 | 10 | – | – | – | –
O=C1NC(=O)C(c2cn(CCCN3CCSCC3)c3ccccc23)=C1Nc1ccccc1 [Example 2-21, 3-(phenylamino)-4-[1-(3-thiomorpholinopropyl)-1H-indol-3-yl]-1H-pyrrole-2,5-dione] | 773 | 46 | 17 | – | – | – | –
Cc1nccn1CCn1cc(C2=C(Nc3ccccc3)C(=O)NC2=O)c2ccccc21 [Example 2-63, 3-[1-{2-(2-methyl-imidazol-1-yl)ethyl}-1H-indol-3-yl]-4-(phenylamino)-1H-pyrrole-2,5-dione] | 7120 | 29 | 247 | – | – | – | –
CC(=O)OCCn1cc(C2=C(Nc3ccccc3)C(=O)NC2=O)c2ccccc21 [Example 2-7, 3-[1-(2-acetoxyethyl)-1H-indol-3-yl]-4-(phenylamino)-1H-pyrrole-2,5-dione] | 3170 | 57 | 56 | – | – | – | –
O=C1NC(=O)C(c2cn(CCCN3CCOCC3)c3ccccc23)=C1Nc1ccccc1 [Example 2-19, 3-[1-(3-morpholinopropyl)-1H-indol-3-yl]-4-(phenylamino)-1H-pyrrole-2,5-dione] | 1230 | 72 | 17 | – | – | – | –
CN(C)C[C@@H]1CCc2c(C3=C(Nc4ccccc4)C(=O)NC3=O)c3ccccc3n2C1 [Example 4-41] | – | 74 | 6 | – | – | – | 445
O=C1NC(=O)C(c2c3n(c4ccccc24)CCCC(Cn2ccnc2)C3)=C1Nc1ccccc1 (centres unmarked) [Example 4-38] | – | 244 | – | 41 | – | – | > 10000
CCN(CCCn1cc(C2=C(Nc3ccccc3)C(=O)NC2=O)c2ccccc21)CCOC [Example 2-15, 3-[1-{3-[N-ethyl-N-(2-methoxyethyl)amino]propyl}-1H-indol-3-yl]-4-(phenylamino)-1H-pyrrole-2,5-dione] | 2680 | 77 | 35 | – | – | – | –
Cc1c(C2=C(Nc3ccccc3)C(=O)NC2=O)c2ccccc2n1CCCN1CCCC1 [Example 2-55, 3-[2-methyl-1-(3-pyrrolidin-1-ylpropyl)-1H-indol-3-yl]-4-(phenylamino)-1H-pyrrole-2,5-dione] | > 10000 | 104 | 96 | – | – | – | –
Cc1c(C2=C(Nc3ccccc3)C(=O)NC2=O)c2ccccc2n1CCCN(C)C [Example 2-54, 3-[1-(3-dimethylaminopropyl)-2-methyl-1H-indol-3-yl]-4-(phenylamino)-1H-pyrrole-2,5-dione] | 6670 | 109 | 61 | – | – | – | –
O=C1NC(=O)C(c2cn(CCCCO)c3ccccc23)=C1Nc1ccccc1 [Example 2-5, 3-[1-(4-hydroxybutyl)-1H-indol-3-yl]-4-(phenylamino)-1H-pyrrole-2,5-dione] | 1830 | 61 | 30 | – | – | – | –
O=C1NC(=O)C(c2cn(CCCN3CCC(CO)CC3)c3ccccc23)=C1Nc1ccccc1 [Example 2-50, 3-[1-{3-[4-(hydroxymethyl)piperidino]propyl}-1H-indol-3-yl]-4-(phenylamino)-1H-pyrrole-2,5-dione] | 886 | 47 | 19 | – | – | – | –

More lines, main results first:

IC50 (PKC α; [1]) [nM] | Ratio α/β (PKC β II) | IC50 (PKC β II; [2]) [nM] | IC50 (PKC β II; [4]) [nM] | IC50 (PKC α) [nM] | IC50 (PKC β II) [nM] | SMILES | IC50 (PKC α; [3]) [nM]
739 | 37 | 20 | – | – | – | O=C1NC(=O)C(c2cn(CCCn3ccnc3)c3ccccc23)=C1Nc1ccc(Cl)cc1 [Example 2-64, 3-[(4-chlorophenyl)amino]-4-[1-(3-imidazol-1-ylpropyl)-1H-indol-3-yl]-1H-pyrrole-2,5-dione] | –
298 | 19 | 16 | – | – | – | O=C1NC(=O)C(c2cn(CC3CCNCC3)c3ccccc23)=C1Nc1ccccc1 [Example 3-2, 3-(phenylamino)-4-[1-(4-piperidylmethyl)-1H-indol-3-yl]-1H-pyrrole-2,5-dione] | –
703 | 59 | 12 | – | – | – | O=C1NC(=O)C(c2cn(CCCN3CCC(N4CCCCC4)CC3)c3ccccc23)=C1Nc1ccccc1 [Example 2-31, 3-(phenylamino)-4-[1-{3-(4-piperidinopiperidino)propyl}-1H-indol-3-yl]-1H-pyrrole-2,5-dione] | –
331 | – | 5 | – | – | – | O=C1NC(=O)C(c2cn(CCCn3ccnc3)c3ccccc23)=C1Nc1ccccc1 [Example 2-36, 3-[1-(3-imidazol-1-ylpropyl)-1H-indol-3-yl]-4-(phenylamino)-1H-pyrrole-2,5-dione] | –
558 | 56 | 10 | – | – | – | CN(C)CCCn1cc(C2=C(Nc3cccc(Cl)c3)C(=O)NC2=O)c2ccccc21 [Example 2-12, 3-[1-(3-dimethylaminopropyl)-1H-indol-3-yl]-4-[(3-chlorophenyl)amino]-1H-pyrrole-2,5-dione] | –
356 | 45 | 8 | – | – | – | Cc1cncn1CCCn1cc(C2=C(Nc3cccc(Cl)c3)C(=O)NC2=O)c2ccccc21 [Example 2-59, 3-[(3-chlorophenyl)amino]-4-[1-{3-(5-methyl-imidazol-1-yl)propyl}-1H-indol-3-yl]-1H-pyrrole-2,5-dione] | –
315 | 53 | 6 | – | – | – | O=C1NC(=O)C(c2cn(CCCn3ccnc3)c3ccccc23)=C1Nc1ccc(F)cc1 [Example 2-68, 3-[(4-fluorophenyl)amino]-4-[1-(3-imidazol-1-ylpropyl)-1H-indol-3-yl]-1H-pyrrole-2,5-dione] | –
452 | 45 | 10 | – | – | – | Cc1nccn1CCCn1cc(C2=C(Nc3cccc(Cl)c3)C(=O)NC2=O)c2ccccc21 [Example 2-42, 3-[(3-chlorophenyl)amino]-4-[1-{3-(2-methylimidazol-1-yl)propyl}-1H-indol-3-yl]-1H-pyrrole-2,5-dione] | –
